# Assay results taken from US20160022810A1, “Method for Treating Cancers by Alternating Immunotherapeutics and Directly Oncolytic Therapeutics” (priority 2014, published 2016).
# Columns and labels:
# [1] = system: 4T1 breast cancer cells; test: visible lung metastases, CATS versus paclitaxel (FIG. 7); assay type: in vivo, BALB/c mice; details: two boluses separated by 2 days; 100 micrograms
# Source text: This reflects into a much stronger anti-metastatic activity (FIG. 7) of CATS™ over paclitaxel, that translates to survival benefits. In this study, 40 BALB/c mice were orthotopically implanted in the mammary pad on Day 0 with 1×10^4 4T1 breast cancer cells. When tumor volume approximated 200 mm^3 (on Day 17), mice were randomly distributed into four cohorts of ten mice each. […] Mice were sacrificed when tumor diameter reached 14 mm (Day 30), at which time mice were euthanized, lungs removed, and visible lung metastases were quantitated by a second observer blinded to the treatment protocols. Floating bars depict maximum and minimum number of metastases each cohort, horizontal line indicates mean±SE.
# [2] = system: 4T1 cells; test: survival with CATS alternating with cyclophosphamide (FIG. 10); assay type: in vivo, mice; details: cyclophosphamide alone 80 mg/kg ip, two boluses over 48 hours from Day 20, then weekly
# Description: This Kaplan-Meier graph plots survival of three groups of mice (10/cohort) implanted with 1×10^4 4T1 cells on Day 0 and initiated to treatment on Day 20 with two bolus doses over the first 48 hours, and thereafter once weekly of either placebo (blue, 50 ng IV), cyclophosphamide (Cy, orange, 80 mg/kg ip) or alternating therapy (CATS/Cy, green, 50 ng IV CATS™ boluses or every other week, alternating every other week with Cy 80 mg/kg). In this trial 100% of mice treated with CATS™ alternating therapy survived 75 days, at which time the trial was terminated.
# [3] = system: 4T1 breast cancer cells; test: survival with single regimen, cyclophosphamide or CATS (FIG. 8); assay type: in vivo; details: 80 mg/kg ip weekly from Day 16; no mice survived beyond; control 37 days
# Description: Thirty mice were orthotopically implanted with 5×10^4 4T1 breast cancer cells in their mammary fat pad on Day 0. On Day 16, mice were randomized into three cohorts of ten mice each to receive weekly doses of either carrier control (Brown line, Placebo, 25 ng iv), cyclophosphamide cytotoxic drug (CD) chemotherapy (Green line, CD, 80 mg/kg ip) or CATS™ immunotherapy (Purple line, 25 ng iv). Kaplan-Meier curves analyzing surviving mice in each cohort show no mice survived beyond 37 days in the control group, or 46 days in the CD group, while 4 of 10 mice were alive at day 62 in the CATS™ treatment group.
SMILES,tolerability of consolidation dosing [1],survival at Day 40 [2],longest survival [3] [days]
"CC(=O)O[C@H]1C(=O)[C@@]2(C)[C@H]([C@H](OC(=O)c3ccccc3)[C@]3(O)C[C@H](OC(=O)[C@H](O)[C@@H](NC(=O)c4ccccc4)c4ccccc4)C(C)=C1C3(C)C)[C@]1(OC(C)=O)CO[C@@H]1C[C@@H]2O [Taxol, paclitaxel]",toxic,,
O=P1(N(CCCl)CCCl)NCCCO1 (stereo not drawn) [cyclophosphamide],,all of the mice receiving cyclophosphamide alone were dead,≤ 46
